Patent US4971967A, “Quinolinecarboxylic acid derivatives, antibacterial compositions and use” (Kanebo Ltd, priority 1989, dated 1990)
Values after ≈ are worked out from the molar mass of the structure shown.

Experiments:
[1] = test system: Morganella morganii IFO 3848; assay: Antibacterial activity (MIC), Morganella morganii IFO 3848; assay type: cell-based; details: Morganella morganii, IFO3848, Morganella morganii IFO 3848, Gram -; read-out: Minimum inhibitory concentration (MIC)
Outline: (§1)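 Dissolve compound in 0.1 N aqueous sodium hydroxide or sterilized distilled water to 5000 μg/ml; dilute to a 1000 μg/ml standard; measure MIC as prescribed by the Japan Society of Chemotherapy.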

[2] = test system: Pseudomonas aeruginosa E-2; assay: Antibacterial activity (MIC), P. aeruginosa E-2; assay type: cell-based; details: E2; Pseudomonas aeruginosa E-2, Gram -; read-out: Minimum inhibitory concentration (MIC)
Outline: as §1

[3] = test system: Pseudomonas aeruginosa E-2; assay: Effect on treatment of general infectious disease, P. aeruginosa E-2 (Experiment 3); assay type: in vivo, ddY male mice infected with Pseudomonas aeruginosa; details: E2, 168 h, oral, 1 h after i.p. infection, 3.1×10^4 CFU/mouse, survival after one week
Description: Pseudomonas aeruginosa E-2 (3.1×10^4 CFU/mouse)
The test microorganisms were subjected to standing culture in Trypto-Soya Agar "Nissui" (made by Nissui Seiyaku K.K., Japan) at 37° C. for 16 to 18 hours. The culture was then diluted with PBS (Dulbecco's phosphate buffered saline) and mixed with an equivalent amount of 10% (w/v) Mucin (BACTO MUCIN BACTERIOLOGICAL, made by Difco Co.) to prepare a microorganism solution. The thus prepared microorganism solution (0.5 ml each) was intraperitoneally inoculated to ddY male mice (5 weeks age, weighing 25-28 g, 5 mice in each group), to infect the animals. One hour after the infection, the compound (A) or (J) of the present invention or the known compound (X) suspended in 1% (w/v) aqueous gum arabic or the known compound (Y) dissolved in sterilized distilled water was orally adiministered to mice.
The mice were daily observed for one week, and from the survival number of mice after one week, the 50% effective dose (ED50) was calculated by Weil method.

Escherichia coli KC-14 = assay: Antibacterial activity (MIC), E. coli KC-14; assay type: cell-based; details: KC14; Escherichia coli KC-14, Gram -; read-out: Minimum inhibitory concentration (MIC)
Outline: as §1

[4] = test system: Salmonella typhimurium IID 971; assay: Antibacterial activity (MIC), Salmonella typhimurium IID 971; assay type: cell-based; details: Salmonella enterica; Salmonella typhimurium IID 971, Gram -; read-out: Minimum inhibitory concentration (MIC)
Outline: as §1

[5] = Acute toxicity (Experiment 5); details: mouse, in vivo, po, 2000 mg/kg
Description: (§2) The compound (A) or (J) of the present invention was suspended in 1% (w/v) aqueous gum arabic to prepare a suspension in concentration of 100 mg/ml. The suspension was orally administered to ddY male mice (5 weeks age, weighing 20 to 25 g, 5 mice in each group), which had been fasted for 18 hours, at a rate of 2000 mg/kg body weight of the compound (A) or (J).

[6] = test system: Acinetobacter calcoaceticus AC 54; assay: Antibacterial activity (MIC), Acinetobacter calcoaceticus AC 54; assay type: cell-based; details: Acinetobacter calcoaceticus, AC54, read-out: Minimum inhibitory concentration (MIC), Acinetobacter calcoaceticus AC 54, Gram -
Outline: as §1

[7] = test system: clinically isolated methicillin resistant Staphylococcus aureus; assay: MIC against clinically isolated methicillin resistant Staphylococcus aureus; assay type: cell-based; details: 54 strains; for MIC50: minimum concentration for inhibiting growth of the strains by 50%; for MIC90: minimum concentration for inhibiting growth of the strains by 90%
Description: The compounds (A) and (J) of the present invention and the known compound (X) were dissolved in 0.1 N aqueous sodium hydroxide, and the known compound (Y) in sterilized distilled water, to prepare a solution of 5000 μg/ml in concentration each. The above solutions were then diluted with sterilized distilled water to prepare a standard solution with a concentration of the test compound: 1000 μg/ml each. The test was carried out by a method appointed by Japan Society of Chemotherapy (ibidem) to measure minimum inhibitory concentration (MIC) against 54 strains of clinically isolated methicillin resistant Staphylococcus aureus, from which there were calculated a range of MIC (MICrange) of the test compound against these resistant strains, a minimum concentration for inhibiting the growth of the strains by 50% (MIC50) and a minimum concentration for inhibiting the growth of the strains by 90% (MIC90).

[8] = Low toxicity (Experiments 5 and 6); assay type: in vivo, ddY male mice; details: result in words
Description: as §2
The compound (O) or (P) of the present invention was suspended in sterilized distilled water to prepare a suspension. The suspension was orally adminstered to ddY male mice (5 weeks age, weighing 20 to 25 g, 5 mice in each group), which had been fasted for 18 hours.

SMILES	MIC [1]	MIC [2]	ED50 [3]	MIC (Escherichia coli KC-14)	MIC [4]	death of mice [5]	MIC [6]	MIC [7]	MIC50 [7]	MIC90 [7]	toxicity [8]
CN1CCN(c2c(F)cc3c(=O)c(C(=O)O)c4scc5n4c3c2N(C)C5)CC1 [Compound (A), 9,1-(Methylimino)methano-7-fluoro-8-(4-methyl-1-piperazinyl)-5-oxo-5H-thiazolo[3,2-a]quinoline-4-carboxylic acid]	0.05 µg/mL (≈ 0.124 µM)	0.78 µg/mL (≈ 1.94 µM)	10.2 mg/kg	0.05 µg/mL (≈ 0.124 µM)	0.05 µg/mL (≈ 0.124 µM)	no death of mice was observed	0.025 µg/mL (≈ 0.0621 µM)	0.025 to 0.1 µg/mL (≈ 0.0621 to 0.248 µM)	0.05 µg/mL (≈ 0.124 µM)	0.1 µg/mL (≈ 0.248 µM)	low toxicity
CCN1CCN(c2c(F)cc3c(=O)c(C(=O)O)c4scc5n4c3c2N(C)C5)CC1 [Compound (J), 9,1-(Methylimino)methano-7-fluoro-8-(4-ethyl-1-piperazinyl)-5-oxo-5H-thiazolo[3,2-a]quinoline-4-carboxylic acid]	0.1 µg/mL (≈ 0.24 µM)	0.78 µg/mL (≈ 1.87 µM)	6.8 mg/kg	–	–	no death of mice was observed	–	0.025 to 0.1 µg/mL (≈ 0.06 to 0.24 µM)	0.05 µg/mL (≈ 0.12 µM)	0.1 µg/mL (≈ 0.24 µM)	low toxicity
